Measurements published in patent US8562953B2, “Dendritic polymers and magnetic resonance imaging contrast agent employing the same” (Industrial Technology Research Institute, priority 2007, dated 2013).

Test: T1 relaxation measurements (water proton relaxivity, 20 MHz NMR spectrometer, inversion-recovery)
Assay type: physicochemical
Conditions: Bo = 0.47 T, per Gd^3+ ion
Protocol: T1 Relaxation Measurements […] […] All of the three generations of cyclosiloxane-core dendrimers (polymer (A)˜(C)) were analyzed and compared with a commercial contrast agent, namely, Magnevist. […] 1, polymers (A)˜(D) for Magnetic resonance imaging (MRI) were developed. It consists of paramagnetic gadolinium ions chelated to DTPA/benzyl-DTPA molecules which in turn were attached to the peripheral of the cyclic dendritic structure.

CNC[C@H](O)[C@@H](O)[C@H](O)[C@H](O)CO.CNC[C@H](O)[C@@H](O)[C@H](O)[C@H](O)CO.O=C([O-])CN(CCN(CC(=O)[O-])CC(=O)O)CCN(CC(=O)[O-])CC(=O)O.[Gd+3] [Magnevist ™]
Relaxivity/Gd^3+ ion (ionic) r1: 4.2 (mM · s) − 1
